Test results as given in ChEMBL document CHEMBL1127164, “Dihydropyridine KATP potassium channel openers” (Bioorg Med Chem Lett, 1993).

Columns and labels:
Type in all cases: functional
Cavia porcellus [1] = organism: Cavia porcellus; experiment: The compound was tested for […] activity against guinea pig detrusor (bladder) strip mildly depolarized with 15 mM KCl
Cavia porcellus [2] = organism: Cavia porcellus; experiment: The compound was tested for […] activity against guinea pig vascular tissue (portal vein) strip mildly depolarized with 15 mM KCl
Cavia porcellus [3] = organism: Cavia porcellus; experiment: Tested for percent increase of efflux rate constant of 50 uM of compound using guinea pig detrusor
Cavia porcellus [4] = organism: Cavia porcellus; experiment: The compound was tested for […] activity against guinea pig detrusor (bladder) strip contracted with 80 mM KCl

Row | IC50 (Cavia porcellus [1]) [nM] | IC50 (Cavia porcellus [2]) [nM] | IC50 (Cavia porcellus [4]) [nM] | Compound | Increase (Cavia porcellus [3]) [%]
1 | 1370 | – | – | O=C1CCCC2=C1C(c1ccc(-c3ccccc3)cc1)C1=C(O)CCCC1=N2 (stereo not drawn) | –
2 | 4440 | 100 | 47800 | O=C1CCCC2=C1C(c1cccc([N+](=O)[O-])c1)C1=C(O)CCCC1=N2 (stereo not drawn) | 30.7
3 | 460 | – | – | O=C1CCCC2=C1C(c1ccc(F)c(Cl)c1)C1=C(O)CCCC1=N2 (stereo not drawn) | –

Second part, the compound before the results:

Row | Compound | IC50 (Cavia porcellus [1]) [nM] | IC50 (Cavia porcellus [2]) [nM] | IC50 (Cavia porcellus [4]) [nM] | Increase (Cavia porcellus [3]) [%]
4 | COC(=O)C1=C(C)NC(C)=C(C(=O)OCCCN2CCC(c3ccccc3)(c3ccccc3)CC2)[C@H]1c1cccc([N+](=O)[O-])c1 [NIGULDIPINE] | > 30000 | – | – | –
5 | COC(=O)C1=C(C)NC(C)=C(C(=O)OCCCN2CCC(c3ccccc3)(c3ccccc3)CC2)[C@@H]1c1cccc([N+](=O)[O-])c1 [DEXNIGULDIPINE] | > 30000 | – | – | –
6 | O=C1CCCC2=C1C(c1cc([N+](=O)[O-])cs1)C1=C(O)CCCC1=N2 (stereo not drawn) | 160 | 9 | – | –
7 | O=[N+]([O-])c1cccc(C2C3=C(CCCC3)N=C3CCCC(O)=C32)c1 (stereo not drawn) | 510 | – | – | –
8 | CC1=CC(c2cccc([N+](=O)[O-])c2)C2=C(O)CCCC2=N1 (stereo not drawn) | 660 | – | – | –
9 | N#Cc1ccc(C2C3=C(O)CCCC3=NC3=C2C(=O)CCC3)cc1C(F)(F)F (stereo not drawn) | 420 | – | – | –
